In patent US5132309A, “2-oxo-3,8-diazaspiro(4,5)decane derivatives, pharmaceutical compositions containing them and process for preparing same” (Richter Gedeon Vegyeszeti Gyar RT, priority 1989, dated 1992):
Where two headings read alike, the source gives them in different places.

Experiments:
[1] = Cataleptogenic (catalepsy-inducing) effect; parameters: species or system male Wistar rats; conditions: in vivo; rat; oral; hourly for 6 hours
[2] = test system: apomorphine-induced locomotor hyperactivity and stereotypy; test: Inhibition of the apomorphine-induced locomotor hyperactivity and stereotypy; type: in vivo, male Hannover-Wistar rats; conditions: rat, 2.5 mg/kg oral; for Inhibition of apomorphine-induced LMA as percentage of the control / Inhibition of apomorphine-induced stereotypy as percentage of the control: apomorphine hydrochloride 1 mg/kg s.c.; for Inhibition of apomorphine-induced LMA as percentage of the control: control LMA 100% (438.9 ± 54.7 sec); for Inhibition of apomorphine-induced stereotypy as percentage of the control: control stereotypy 100% (105.0 ± 13.7 sec)
Text: Apomorphine induces a characteristic syndrome in rats and various animal species which manifests itself in the hyperactivity and stereotypic behavior of the animals [J. Pharm. Pharmacol. 19 627 (1957); J. Neurol. Transm. 40, 97 (1977); J. Psychiat. Res. 11, 1 (1974); J. Pharm. Pharmacol. 25, 1003 (1973); as well as Nature 263, 338 (1976)].
Male Hannover-Wistar rats weighing 160 to 180 g were used in these examinations. The test compounds were suspended in a 2% Tween 80 solution and diluted to the desired concentration by adding distilled water. The corresponding dose was administered to rats in a volume of 5 ml/kg. The control group was treated with the above solution containing no test substance.
One hour following the treatment with 2.5 mg/kg oral dose of the test compound, the rats were subcutaneously treated with 1 mg/kg of apomorphine hydrochloride.
At 15 minutes after administration of apomorphine, the animals were placed in a 5-channel behavior-observing device controlled by a microprocessor and the coordinated and stereotypic motion of the animals were measured for 15 minutes. Chlozapine (chemically 8-chloro-11-(4-methyl-1-piperazinyl)-5H-dibenzo[b,e][1,4]diazepine) was used in a dose of 2.5 mg/kg as reference drug. The results are given as percentages of the control for both motion types.

[3] = test system: triethyl tin chloride-induced cerebral edema; test: Inhibition of the cerebral (brain) edema induced by triethyl tin chloride; type: in vivo, male Hannover-Wistar rats; conditions: rat, TET 2.5 mg/kg daily for 5 days
Procedure: The cerebral edema-inhibiting effect of the compounds was investigated by the following method [Ann. Pharm. Fr. 42, 431 (1984)].
A group consisting of 7 male Hannover-Wistar rats weighing 180 to 200 g were daily treated with 2.5 mg/kg of triethyl tin chloride (hereinafter TET) for 5 days to induce a cerebral edema. [TET (Merck-Schuchardt, Darmstadt, FRG) was dissolved in distilled water under stirring and the animals were orally treated with the stirred solution daily at 7 a.m.].
The reference and test compounds were homogenized in a 0.5% by weight carboxymethylcellulose solution by using an Ultra Turrax stirrer and the stirring was continued during the administration, too. These compounds were orally given first 1 hour, then 6 hours after the TET treatment in a volume of 0.5 ml/100 g of body-weight in both cases. The control group received the solvent of TET (i.e. distilled water) and the carrier of the compounds (i.e. 0.5% by weight carboxymethylcellulose solution) at the same intervals and volumes as given above.
On the 5th day of treatments, 2 hours following the last administration of the test compound, the animals were decapitated, the whole brain was rapidly taken out, washed with cold, 0.9% by weight sodium chloride solution and the moisture was removed by filter paper. The wet weights of the brains were weighed with an accuracy of one tenth mg and placed onto an aluminum foil previously weighed. Subsequently, the brains were dried at 90° C. for 92 hours, then the total (gross) weight (i.e. the dry brain weight together with the weight of the aluminum foil) was determined. The water content of the brain and the change thereof, respectively, were calculated from the difference of the wet and dry brain weight. The change was expressed as percentage of the protection as follows: [formula] wherein (TET-Ko) means the mean water content (%) of the brain of animals treated with TET and carrier;
(TET-V) means the mean water content (%) of the brain of animals treated with TET and test compound;
(Veh-Ko) means the mean water content (%) of the brain of animals treated with distilled water and carrier.
The deviations of changes in the water content and dry weight of the brain were compared by using Student's "t" trial. Also here, piracetam and dihydroergotoxine were used as reference drugs.

hypoxic memory damage = test: Inhibition of the hypoxic damage of the memory (nootropic effect), conditioned avoidance in Shuttle-box; type: in vivo, male spontaneously (genetically) hypertensive rats; conditions: rat, hypoxia 6% oxygen
Text: Male, spontaneously (genetically) hypertensive rats weighing 210 to 230 g were used in these examinations. The active avoiding behavior was developed in a 6-channel automated Shuttle-box by a training consisting of 30 cycles during 3 days. Within a single cycle an intermittent light stimulus of 1 Hz frequency for 15 seconds as conditioned stimulus and an electric stimulus of 0.8 mA for 10 seconds as unconditioned stimulus were used with an intersignal time of 15 seconds.
On the 4th day, one hour before the experiment the animals were treated with a 10 mg/kg oral dose of the test compounds. Two control groups were used in these examinations, one of which was treated with placebo whereas the other one was treated with placebo and exposed to hypoxia. Piracetam (chemically 2-oxo-1-pyrrolidineacetic acid amide) and dihydroergotoxine were used as reference drugs. The performance of the animals was examined under hypoxic conditions in such a way that the boxes were flown through at a rate of 200 ml/min/box with a gaseous mixture containing 6% by volume of oxygen and 94% by volume of nitrogen. The number of the conditioned avoidance responses (as abbreviated hereinafter: CAR) was counted. The protective effect of the compounds against the hypoxic memory damage was calculated by using the following formula: [formula] wherein
protective effect means the effect inhibiting the hypoxic memory damage expressed as percentage; and
CAR x means the average value of the number of conditioned responses in the animal group given.
The protective effect of the compounds against the hypoxic memory damage expressed as percentage of the control is shown in Table 2.

hypobaric hypoxia = test: Inhibition of the hypobaric hypoxia (survival time); type: in vivo, male spontaneously hypertensive rats; conditions: for ED50: po, 1 h, read-out: Protection against hypobaric hypoxia, ED50
Procedure: Male, spontaneously hypertensive rats weighing 200 to 220 g were used in these investigations. Groups consisting of 3 animals each were placed into a desiccator of 6 liters by volume, the pressure was decreased to 170 Hgmm (22.66 kPa) within 20 seconds and continuously maintained at the same level. One hour before the examination, the animals were treated with various oral doses of the test compounds. The ED50 values (i.e. the doses prolonging the survival time of the test animals by 50% in comparison to that of the control group treated with placebo) were determined and summarized in Table 3.

| Compound | ED50 at 6 h [1] [mg/kg] | Inhibition of apomorphine-induced LMA as percentage of the control [2] | Inhibition of apomorphine-induced stereotypy as percentage of the control [2] | Protection (brain water content, cerebral edema) ([3]; dose 100 umol/kg oral) [%] | other results |
| --- | --- | --- | --- | --- | --- |
| CN1C(=O)OC2(CCN(CCC=C(c3ccc(F)cc3)c3ccc(F)cc3)CC2)C1(C)O.Cl (stereo not drawn) [A, 8-[4,4-bis(4-fluorophenyl)-3-butenyl]-3,4-dimethyl-4-hydroxy-2-oxo-1-oxa-3,8-diazaspiro[4,5]decane hydrochloride] | > 300 | -40 percentage of the control | 0 percentage of the control |  |  |
| CC1(O)N(Cc2ccccc2)C(=O)OC12CCN(CCC=C(c1ccc(F)cc1)c1ccc(F)cc1)CC2.Cl (stereo not drawn) [B, 3-benzyl-8-[4,4-bis(4-fluorophenyl)-3-butenyl]-4-hydroxy-4-methyl-2-oxo-1-oxa-3,8-diazaspiro[4,5]decane hydrochloride] | > 300 | -25 percentage of the control | +15 percentage of the control |  |  |
| CC(C)(C)N1C(=O)OC2(CCN(CCC=C(c3ccc(F)cc3)c3ccc(F)cc3)CC2)C1(C)O.Cl (stereo not drawn) [C, 3-tert-butyl-8-[4,4-bis(4-fluorophenyl)-3-butenyl]-4-hydroxy-4-methyl-2-oxo-1-oxa-3,8-diazaspiro[4,5]decane hydrochloride] |  |  |  | 88.1 | Protection (brain water content, cerebral edema) ([3]; dose 25 umol/kg oral): 97.9%; Protection (brain water content, cerebral edema) ([3]; dose 50 umol/kg oral): 102.0%; Protection against amnesia (hypoxic memory damage; 10 mg/kg p.o.): 64%; ED50 (hypobaric hypoxia; rat, 170 Hgmm, dose prolonging survival time by 50% vs placebo control): 23.7 mg/kg |
| CN1CCN(C2=Nc3cc(Cl)ccc3Nc3ccccc32)CC1 [Clozapine, 8-chloro-11-(4-methyl-1-piperazinyl)-5H-dibenzo[b,e][1,4]diazepine, reference compound] | 31.9 | -25 percentage of the control | +11 percentage of the control |  | inhibition of stereotypy (in words) [2]: did not inhibit the stereotypy |
| COc1ccc(CCN2C(=O)OC3(CCN(CCC=C(c4ccc(F)cc4)c4ccc(F)cc4)CC3)C2(C)O)cc1OC.O=C(O)/C=C\C(=O)O (stereo not drawn) [D, 8-[4,4-bis(4-fluorophenyl)-3-butenyl]-3-[2-(3,4-dimethoxyphenyl)ethyl]-4-hydroxy-4-methyl-2-oxo-1-oxa-3,8-diazaspiro[4,5]decane maleate] |  |  |  | 102.2 |  |
| CC1(O)NC(=O)OC12CCN(CCC=C(c1ccc(F)cc1)c1ccc(F)cc1)CC2.Cl (stereo not drawn) [E, 8-[4,4-bis(4-fluorophenyl)-3-butenyl]-4-hydroxy-4-methyl-2-oxo-1-oxa-3,8-diazaspiro[4,5]decane hydrochloride] |  |  |  | 114.3 |  |
| NC(=O)CN1CCCC1=O [PIR, 2-oxo-1-pyrrolidineacetic acid amide] |  |  |  | 16.7 | Protection against amnesia (hypoxic memory damage; 500 mg/kg p.o.): 85%; ED50 (hypobaric hypoxia; Rattus norvegicus): 293 mg/kg |
| dihydroergotoxine [DHE] |  |  |  |  | Protection (brain water content, cerebral edema) ([3]; dose 30 mg/kg oral): 25.6%; Protection against amnesia (hypoxic memory damage; 10 mg/kg p.o.): 63%; survival achieved at the high dose of DHE (hypobaric hypoxia; rat, 50.0 mg/kg p.o., hypobaric hypoxia): 40%; Protection against hypobaric hypoxia, ED50 (hypobaric hypoxia; rat, 170 Hgmm, dose prolonging survival time by 50% vs placebo control, 60 min): 50.0 mg/kg p.o. |
